Measurements published in patent US8703934B2, “Substituted 4-amino-3,5-dicyano-2-thiopyridines and use thereof” (Bayer Intellectual Property GmbH, priority 2006, dated 2014).

Assays:
Assay type in all cases: cell-based
[1] = target: T1, adenosine A2a receptor (Homo sapiens, UniProt P29274); test: Indirect determination of adenosine agonism by way of gene expression (luciferase, CHO cells), A2a; conditions: CHO cells stably transfected with A2a receptor cDNA; 50% of maximum luciferase stimulation
T1 construct: expressed in transfected cells; host or cells: CHO (Chinese Hamster Ovary)
Text: (§1) B-1. Indirect Determination of the Adenosine Agonism by Way of Gene Expression
(§2) Cells of the CHO (Chinese Hamster Ovary) permanent cell line are transfected stably with the cDNA for the adenosine receptor subtypes A1, A2a and A2b. The adenosine A1 receptors are coupled to the adenylate cyclase by way of G, proteins, while the adenosine A2a and A2b receptors are coupled by way of Gs proteins. In correspondence with this, the formation of cAMP in the cell is inhibited or stimulated, respectively. After that, expression of the luciferase is modulated by way of a cAMP-dependent promoter. The luciferase test is optimized, with the aim of high sensitivity and reproducibility, low variance and good suitability for implementation on a robot system, by varying several test parameters, such as cell density, duration of the growth phase and the test incubation, forskolin concentration and medium composition. The following test protocol is used for pharmacologically characterizing cells and for the robot-assisted substance screening:
(§3) The stock cultures are grown, at 37° C. and under 5% CO2, in DMEM/F12 medium containing 10% FCS (fetal calf serum) and in each case split 1:10 after 2-3 days. The test cultures are seeded in 384-well plates with 2000 cells per well and grown at 37° C. for approx. 48 hours. The medium is then replaced with a physiological sodium chloride solution (130 mM sodium chloride, 5 mM potassium chloride, 2 mM calcium chloride, 20 mM HEPES, 1 mM magnesium chloride hexahydrate, 5 mM sodium bicarbonate, pH 7.4). The substances to be tested, which are dissolved in DMSO, are pipetted into the test cultures (maximum final concentration of DMSO in the test mixture: 0.5%) in a dilution series of from 5×10^−11M to 3×10^−6M (final concentration). 10 minutes later, forskolin is added to the A1 cells and all the cultures are subsequently incubated at 37° C. for four hours. After that, 35 μl of a solution which is composed of 50% lysis reagent (30 mM disodium hydrogenphosphate, 10% glycerol, 3% TritonX100, 25 mM TrisHCl, 2 mM dithiotreitol (DTT), pH 7.8) and 50% luciferase substrate solution (2.5 mM ATP, 0.5 mM luciferin, 0.1 mM coenzyme A, 10 mM tricine, 1.35 mM magnesium sulfate, 15 mM DTT, pH 7.8) are added to the test cultures, which are shaken for approx 1 minute and the luciferase activity is measured using a camera system. The EC50 values are determined, i.e., the concentrations at which 50% of the luciferase answer is inhibited in the case of the A1 cell, and, respectively, 50% of the maximum stimulation with the corresponding substance is achieved in the case of the A2b and A2a cells. […] Pharmacol., 357 (1998), 1-9).

[2] = target: T2, adenosine A1 receptor (Homo sapiens, UniProt P30542); test: Indirect determination of adenosine agonism by way of gene expression (luciferase, CHO cells), A1; conditions: CHO cells stably transfected with A1 receptor cDNA; 1 μM forskolin; 50% inhibition of luciferase answer
T2 construct: expressed in transfected cells; host or cells: CHO (Chinese Hamster Ovary)
T2 sequence (P30542 1-326): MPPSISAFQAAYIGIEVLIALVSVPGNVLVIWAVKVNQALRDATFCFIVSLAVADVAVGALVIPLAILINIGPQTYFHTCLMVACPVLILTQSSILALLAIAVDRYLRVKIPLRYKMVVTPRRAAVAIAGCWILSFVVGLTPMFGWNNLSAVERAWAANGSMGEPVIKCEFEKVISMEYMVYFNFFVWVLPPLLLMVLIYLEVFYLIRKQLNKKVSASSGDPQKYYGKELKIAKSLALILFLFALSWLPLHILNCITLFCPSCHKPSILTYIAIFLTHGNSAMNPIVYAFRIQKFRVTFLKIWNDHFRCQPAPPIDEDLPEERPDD
Text: as §1, §2, §3

[3] = target: T3, adenosine A2b receptor (Homo sapiens, UniProt P29275); test: Indirect determination of adenosine agonism by way of gene expression (luciferase, CHO cells), A2b; conditions: CHO cells stably transfected with A2b receptor cDNA; 50% of maximum luciferase stimulation
T3 construct: expressed in transfected cells; host or cells: CHO (Chinese Hamster Ovary)
T3 sequence (P29275 1-332): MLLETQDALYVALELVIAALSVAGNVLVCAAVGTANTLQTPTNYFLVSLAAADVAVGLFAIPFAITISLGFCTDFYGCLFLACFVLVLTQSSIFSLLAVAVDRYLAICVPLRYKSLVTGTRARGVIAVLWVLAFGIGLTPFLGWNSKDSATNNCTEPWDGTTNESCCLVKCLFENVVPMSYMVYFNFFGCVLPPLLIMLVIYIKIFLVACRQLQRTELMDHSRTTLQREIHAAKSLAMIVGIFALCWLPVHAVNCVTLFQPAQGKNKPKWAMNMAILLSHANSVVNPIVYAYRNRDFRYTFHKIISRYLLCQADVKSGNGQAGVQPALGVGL
Text: as §1, §2, §3

T1 sequence (P29274 whole entry): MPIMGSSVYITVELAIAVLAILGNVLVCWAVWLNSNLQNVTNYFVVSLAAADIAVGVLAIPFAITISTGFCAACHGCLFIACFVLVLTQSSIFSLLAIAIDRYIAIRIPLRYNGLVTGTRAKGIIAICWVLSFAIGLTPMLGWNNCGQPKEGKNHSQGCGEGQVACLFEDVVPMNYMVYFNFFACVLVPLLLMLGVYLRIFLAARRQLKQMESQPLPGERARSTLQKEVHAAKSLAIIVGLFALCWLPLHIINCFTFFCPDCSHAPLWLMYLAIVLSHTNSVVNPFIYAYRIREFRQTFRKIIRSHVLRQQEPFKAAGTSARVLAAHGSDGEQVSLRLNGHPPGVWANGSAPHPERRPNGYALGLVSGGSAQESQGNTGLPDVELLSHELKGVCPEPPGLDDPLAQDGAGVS

Structure (SMILES)	EC50 [1]	EC50 [2]	EC50 [3]
N#Cc1c(N)nc(SCc2csc(-c3ccc(Cl)cc3)n2)c(C#N)c1N1CCC(O)CC1 [Example 1, 2-Amino-6-({[2-(4-chlorophenyl)-1,3-thiazol-4-yl]methyl}thio)-4-(4-hydroxypiperidin-1-yl)pyridine-3,5-dicarbonitrile]	686 nM	1.3 nM	116 nM
N#Cc1c(N)nc(SCc2csc(-c3ccc(Cl)cc3)n2)c(C#N)c1N1CCCCC1 [Example 2]	385 nM	0.5 nM	44 nM
CN1CCN(c2c(C#N)c(N)nc(SCc3csc(-c4ccc(Cl)cc4)n3)c2C#N)CC1 [Example 4]	> 3000 nM	12 nM	> 3000 nM
N#Cc1c(N)nc(SCc2csc(Nc3ccc(F)cc3)n2)c(C#N)c1N1CCCCC1 [Example 6]	1810 nM	45 nM	> 3000 nM
N#Cc1c(SCc2csc(-c3ccc(Cl)cc3)n2)nc(N2CCC(O)C2)c(C#N)c1N1CCCCC1 (stereo not drawn) [Example 30]	1030 nM	5.7 nM	56 nM

Now from value to molecule:

EC50 [1]	EC50 [2]	EC50 [3]	Structure (SMILES)
63 nM	0.3 nM	0.9 nM	N#Cc1c(N)nc(SCc2ccc[n+]([O-])c2)c(C#N)c1N1CCCCC1 [Example 27]
> 3000 nM	46 nM	> 3000 nM	N#Cc1cnc(SCc2csc(-c3ccc(Cl)cc3)n2)c(C#N)c1N1CCCCC1 [Example 34, 2-({[2-(4-Chlorophenyl)-1,3-thiazol-4-yl]methyl}thio)-4-(piperidin-1-yl)pyridine-3,5-dicarbonitrile]
> 3000 nM	8.6 nM	> 3000 nM	COc1nc(SCc2csc(-c3ccc(Cl)cc3)n2)c(C#N)c(N2CCCCC2)c1C#N [Example 35, 2-({[2-(4-Chlorophenyl)-1,3-thiazol-4-yl]methyl}thio)-6-methoxy-4-(piperidin-1-yl)pyridine-3,5-dicarbonitrile]
357 nM	2.2 nM	403 nM	N#Cc1c(N)nc(SCc2coc(-c3ccc(Cl)cc3)n2)c(C#N)c1N1CCCCC1 [Example 37, 2-Amino-6-({[2-(4-chlorophenyl)-1,3-oxazol-4-yl]methyl}sulfanyl)-4-(piperidin-1-yl)pyridine-3,5-dicarbonitrile]
